For data set [1], the system named is Staphylococcus aureus. In words: Antibacterial activity against Staphylococcus aureus […] incubated for 16 hrs by agar dilution method. The format is functional.
Data set [2] concerns Staphylococcus aureus. In words: Antibacterial activity against methicillin-sensitive Staphylococcus aureus incubated for 16 hrs by agar dilution method. The format is functional. Background: In agar dilution, organisms are placed on agar that contains the substance at set levels.
The subject of data set [3] is Staphylococcus aureus. In words: Antibacterial activity against methicillin-resistant Staphylococcus aureus incubated for 16 hrs by agar dilution method. It counts as functional.
The subject of data set [4] is Staphylococcus epidermidis. In words: Antibacterial activity against methicillin-sensitive Staphylococcus epidermidis incubated for 16 hrs by agar dilution method. The format is functional.
For data set [5], the system named is Staphylococcus epidermidis. Nature of the data set: Antibacterial activity against methicillin-resistant Staphylococcus epidermidis incubated for 16 hrs by agar dilution method. It counts as functional.
Data set [6] concerns Streptococcus pneumoniae. Nature of the data set: Antibacterial activity against penicillin-resistant Streptococcus pneumoniae incubated for 16 hrs by agar dilution method. The format is functional.
The test system of data set [7] is Enterococcus faecalis. Nature of the data set: Antibacterial activity against Enterococcus faecalis incubated for 16 hrs by agar dilution method. The format is functional.
Data set [8] is described as follows: Half life in Sprague-Dawley rat liver microsomes at 0.1 uM in presence of NADPH by LC/MS/MS method. The format is ADME.
Data set [9] in a line: Half life in human liver microsomes at 0.1 uM in presence of NADPH by LC/MS/MS method. It counts as ADME.
Data set [10] concerns Liver microsome. In words: Intrinsic clearance in Sprague-Dawley rat liver microsomes assessed per mg protein at 0.1 uM incubated for 7 to 60 mins in presence of NADPH by LC/MS/MS method. It counts as ADME. More on the design: unit not given here. For orientation: Microsomes from liver hold many membrane-bound enzymes, among them those of drug oxidation.
In data set [11] the test system is Liver microsome. In words: Intrinsic clearance in human liver microsomes assessed per mg protein at 0.1 uM incubated for 7 to 60 mins in presence of NADPH by LC/MS/MS method. It counts as ADME. Also noted: unit not given here.

Values after ≈ are worked out from the molar mass of the structure shown.

In general, MIC refers to the lowest concentration found to suppress growth. With `CC(=O)NC[C@@H]1OC(=O)N2c3ccc(-c4ccc(F)nc4)cc3SC[C@@H]12`, the MIC was determined as 4 µg/mL (≈ 10.7 µM) in data set [1]; 4 µg/mL (≈ 10.7 µM) in data set [2]; 2 µg/mL (≈ 5.36 µM) in data set [3]; 2 µg/mL (≈ 5.36 µM) in data set [4]; 2 µg/mL (≈ 5.36 µM) in data set [5]; 2 µg/mL (≈ 5.36 µM) in [6]. Further, the MIC in data set [7] was determined as 4 µg/mL (≈ 10.7 µM).
Turning to `CN1CC(c2ccc(-c3ccc4c(c3)OC[C@H]3[C@H](CO)SC(=O)N43)cn2)OC1=O` (single isomer, unassigned), the MIC in data set [1], in [2], in data set [4], in [6] and in data set [7] was over 16 µg/mL throughout.
Consider `CC(=O)NC[C@H]1CN(c2ccc(N3CCOCC3)c(F)c2)C(=O)O1` [LINEZOLID], for which the MIC amounted to 1 µg/mL (≈ 2.96 µM) in data set [3], 2 µg/mL (≈ 5.93 µM) in data set [4] and 2 µg/mL (≈ 5.93 µM) in data set [5].
By half-life is commonly meant how long it takes for the measured level to halve. As to `CC(=O)NC[C@@H]1OC(=O)N2c3ccc(-c4ccc(N5CCOC5=O)nc4)cc3SC[C@@H]12`, the MIC in data set [1] turned out to be 4 µg/mL (≈ 9.08 µM); in data set [2], 4 µg/mL (≈ 9.08 µM); in [3], 2 µg/mL (≈ 4.54 µM); in data set [4], 2 µg/mL (≈ 4.54 µM); in data set [5] it was 2 µg/mL (≈ 4.54 µM); in data set [6], 1 µg/mL (≈ 2.27 µM). Moreover, in data set [7], the MIC is 4 µg/mL (≈ 9.08 µM). The half-life at 0.1 µM is 368 min in data set [8] and 605 min in [9]. For the same molecule, the figures for the CLH in [10] and in data set [11] were 5.71 and 3.47, respectively.
For `CC(=O)NC[C@@H]1OC(=O)N2c3ccc(-c4ccc(C(C)=O)nc4)cc3SC[C@@H]12`, the MIC was found to be 8 µg/mL (≈ 20.1 µM) in data set [1]; 2 µg/mL (≈ 5.03 µM) in data set [2]; 2 µg/mL (≈ 5.03 µM) in data set [3]; 2 µg/mL (≈ 5.03 µM) in [4]; 2 µg/mL (≈ 5.03 µM) in [5]; 2 µg/mL (≈ 5.03 µM) in [6]. This molecule also gave an MIC in [7] of 4 µg/mL (≈ 10.1 µM).
In the case of `CC(=O)NCC1OC(=O)N2c3ccc(-c4ccc(N5CCOC5=O)nc4)cc3N(C(=O)OC(C)(C)C)CC12` (configuration not stated), the MIC in [1], in data set [2], in data set [4], in data set [6] and in data set [7] was over 16 µg/mL in each case.
On to `CN1C[C@H](c2ccc(-c3ccc4c(c3)OC[C@H]3[C@H](CO)OC(=O)N43)cn2)OC1=O`, for which the MIC in data set [1] amounted to 0.5 µg/mL (≈ 1.26 µM); in data set [2] it was 0.5 µg/mL (≈ 1.26 µM); in data set [3], 0.5 µg/mL (≈ 1.26 µM); in data set [4] it was 0.25 µg/mL (≈ 0.629 µM); in [5], 0.25 µg/mL (≈ 0.629 µM); in [6], 1 µg/mL (≈ 2.52 µM). The molecule also displayed an MIC in data set [7] of 1 µg/mL (≈ 2.52 µM). Further, the half-life at 0.1 µM amounted to 1000 min in data set [8] and 4130 min in data set [9].
With `CC(=S)NC[C@@H]1OC(=O)N2c3ccc(-c4ccc(N5CCOC5=O)nc4)cc3SC[C@@H]12`, the MIC in [1] amounted to 2 µg/mL (≈ 4.38 µM); in data set [2] it was 2 µg/mL (≈ 4.38 µM); in [3], 1 µg/mL (≈ 2.19 µM); in [4], 1 µg/mL (≈ 2.19 µM); in [5], 1 µg/mL (≈ 2.19 µM); in data set [6], 1 µg/mL (≈ 2.19 µM). In data set [7], this molecule returned an MIC of 1 µg/mL (≈ 2.19 µM). Besides, the half-life at 0.1 µM in [8] stood at 21 min; in [9], 33 min. Also, the figures for the CLH in data set [10] and in [11] were 99.6 and 63.4, respectively.
As for `COc1ccc(-c2ccc3c(c2)SC[C@H]2[C@H](CNC(C)=O)OC(=O)N32)cn1`, the MIC is 8 µg/mL (≈ 20.8 µM) in data set [1]; 8 µg/mL (≈ 20.8 µM) in [2]; 4 µg/mL (≈ 10.4 µM) in [3]; 4 µg/mL (≈ 10.4 µM) in data set [4]; 4 µg/mL (≈ 10.4 µM) in data set [5]; 4 µg/mL (≈ 10.4 µM) in data set [6]. In [7], this molecule showed an MIC of 8 µg/mL (≈ 20.8 µM).
Consider `CC(=O)NC[C@@H]1OC(=O)N2c3ccc(-c4ccc(C5CN(C)C(=O)O5)nc4)cc3SC[C@@H]12` (single isomer, unassigned), for which the MIC was determined as 4 µg/mL (≈ 8.8 µM) in [1]; 4 µg/mL (≈ 8.8 µM) in data set [2]; 2 µg/mL (≈ 4.4 µM) in data set [3]; 2 µg/mL (≈ 4.4 µM) in data set [4]; 2 µg/mL (≈ 4.4 µM) in data set [5]; 2 µg/mL (≈ 4.4 µM) in data set [6]. The MIC in data set [7] came out at 4 µg/mL (≈ 8.8 µM). Further, the half-life at 0.1 µM in data set [8] is 231 min. The results for the CLH in [10] and in data set [11] were 9.08 and 0, respectively.
Take `CC(C)(C)OC(=O)N1CC2C(CO)OC(=O)N2c2ccc(-c3ccc(C4(C#N)CC4)nc3)cc21` (configuration not stated): the MIC in data set [1], in [2], in [4], in [6] and in data set [7] was over 16 µg/mL in each case.
As to `CC(=O)NC[C@@H]1OC(=O)N2c3ccc(-c4ccc(C#N)nc4)cc3SC[C@@H]12`, the MIC in data set [1] is 8 µg/mL (≈ 21 µM); in data set [2], 4 µg/mL (≈ 10.5 µM); in [3], 4 µg/mL (≈ 10.5 µM); in data set [4] it was 4 µg/mL (≈ 10.5 µM); in data set [5], 4 µg/mL (≈ 10.5 µM); in data set [6] it was 2 µg/mL (≈ 5.26 µM). For the same molecule, the MIC in data set [7] was 2 µg/mL (≈ 5.26 µM).
As for `CC(=O)NCC1OC(=O)N2c3ccc(-c4ccc(N5CCOC5=O)nc4)cc3NCC12` (configuration not stated), the MIC in [1] is 16 µg/mL (≈ 37.8 µM); in data set [2] it was 16 µg/mL (≈ 37.8 µM); in data set [3], over 4 µg/mL; in data set [4], 16 µg/mL (≈ 37.8 µM); in data set [5], over 2 µg/mL; in data set [6], 4 µg/mL (≈ 9.45 µM). In data set [7], the MIC worked out at 16 µg/mL (≈ 37.8 µM).
Regarding `O=C1OCCN1c1ccc(-c2ccc3c(c2)SC[C@H]2[C@H](CO)OC(=O)N32)cn1`, the MIC in data set [1], in data set [2], in data set [4], in [6] and in data set [7] was over 16 µg/mL throughout.
For the molecule `CC(=O)NC[C@@H]1OC(=O)N2c3ccc(-c4ccc(N5CCOC5=O)nc4)cc3S(=O)(=O)C[C@@H]12`, the MIC in [1], in data set [2], in data set [4], in data set [6] and in [7] was over 16 µg/mL each time.
For the molecule `N#CC1(c2ccc(-c3ccc4c(c3)SC[C@H]3[C@H](CO)OC(=O)N43)cn2)CC1`, the MIC in data set [1], in data set [2], in data set [4], in data set [6] and in data set [7] was over 16 µg/mL throughout.
On to `CC(=O)NC[C@@H]1OC(=O)N2c3ccc(-c4ccc(C5(C#N)CC5)nc4)cc3SC[C@@H]12`, for which the MIC worked out at 4 µg/mL (≈ 9.51 µM) in data set [1]; 4 µg/mL (≈ 9.51 µM) in data set [2]; 2 µg/mL (≈ 4.76 µM) in [3]; 2 µg/mL (≈ 4.76 µM) in data set [4]; 2 µg/mL (≈ 4.76 µM) in data set [5]; 2 µg/mL (≈ 4.76 µM) in data set [6]. It took 4 µg/mL (≈ 9.51 µM) to inhibit growth in data set [7] (MIC).
`N#Cc1ccc(-c2ccc3c(c2)SC[C@H]2[C@H](CO)OC(=O)N32)cn1`: the MIC in data set [1], in data set [2], in [4], in data set [6] and in [7] was over 16 µg/mL throughout.
As to `N#CC1(c2ccc(-c3ccc4c(c3)NCC3C(CO)OC(=O)N43)cn2)CC1` (configuration not stated), the MIC in [1], in data set [2], in data set [4], in data set [6] and in data set [7] was over 16 µg/mL in each case.
With `COc1ccc(-c2ccc3c(c2)SC[C@H]2[C@H](CNC(C)=S)OC(=O)N32)cn1`, the MIC stood at 4 µg/mL (≈ 9.96 µM) in data set [1]; 4 µg/mL (≈ 9.96 µM) in data set [2]; 4 µg/mL (≈ 9.96 µM) in data set [3]; 4 µg/mL (≈ 9.96 µM) in data set [4]; 4 µg/mL (≈ 9.96 µM) in data set [5]; 2 µg/mL (≈ 4.98 µM) in [6]. Besides, in data set [7], the MIC came to 8 µg/mL (≈ 19.9 µM).
Turning to `CC(=O)NC[C@@H]1OC(=O)N2c3ccc(-c4ccc(N5CCOC5=O)nc4)cc3[S+]([O-])C[C@@H]12` (some centres not stated), the MIC in data set [1], in data set [2], in data set [4], in [6] and in data set [7] was over 16 µg/mL throughout.
`CC(=S)NC[C@@H]1OC(=O)N2c3ccc(-c4ccc(F)nc4)cc3SC[C@@H]12`: the MIC in data set [1] was 8 µg/mL (≈ 20.5 µM); in [2], 8 µg/mL (≈ 20.5 µM); in [3], 2 µg/mL (≈ 5.14 µM); in [4], 2 µg/mL (≈ 5.14 µM); in data set [5], 1 µg/mL (≈ 2.57 µM); in data set [6] it was 1 µg/mL (≈ 2.57 µM). Further, the MIC in data set [7] worked out at 2 µg/mL (≈ 5.14 µM).
Turning to `CC(=S)NC[C@@H]1OC(=O)N2c3ccc(-c4ccc(C#N)nc4)cc3SC[C@@H]12`, the MIC in data set [1] was found to be 8 µg/mL (≈ 20.2 µM); in data set [2], 8 µg/mL (≈ 20.2 µM); in [3], 4 µg/mL (≈ 10.1 µM); in data set [4], 4 µg/mL (≈ 10.1 µM); in [5] it was 4 µg/mL (≈ 10.1 µM); in data set [6], 4 µg/mL (≈ 10.1 µM). This molecule also registered a minimal inhibitory concentration (MIC) in [7] of over 16 µg/mL.
Turning to `O=C1OCCN1c1ccc(-c2ccc3c(c2)OC[C@H]2[C@H](CO)SC(=O)N32)cn1`, the MIC in data set [1], in [2], in data set [4], in [6] and in [7] was over 16 µg/mL throughout.
On to `N#Cc1ccc(-c2ccc3c(c2)OC[C@H]2[C@H](CO)SC(=O)N32)cn1`, for which the minimal inhibitory concentration (MIC) in data set [1], in [2], in [4], in data set [6] and in [7] was over 16 µg/mL each time.

The values are drawn from ChEMBL document CHEMBL3400146, “Synthesis and structure-activity relationship studies of novel [6,6,5] tricyclic oxazolidinone derivatives as potential antibacterial agents” (Bioorg Med Chem Lett, 2015).
